The values below come from US11795171B2, “Pyrrolotriazinones and imidazotriazinones as ubiquitin-specific protease 7 inhibitors” (Valo Health, Inc., priority 2014, dated 2023).

In general, IC50 refers to the midpoint of a concentration-inhibition curve. Read a low IC50 as higher potency.

Where only a bound is given, the exact number is not on record here.

The target in the assay is USP7 (Homo sapiens (Human), UniProt Q93009). Briefly: USP7 Assay B (Ubitquin-Rhodamine110 Assay). It counts as biochemical. To be noted: Ub-Rh110 substrate 25 nM. As to the method: Stock compound solutions were stored at −20° C. as 10 mM in DMSO. […] Prestamped assay plates were allowed to come to room temperature on the day of the assay. For the screen, 100 nL of 2 mM was pre-dispensed for a final screening concentration of 10 μM (DMSO(fc)=0.5%). […] Unless otherwise indicated, all follow-up assays were run on triplecate plates. […] Pre-stamped with compounds were either not preincubated or preincubated with USP7 between 30 to 120 minutes prior to the addition of 10 μL of 2×Ub-Rh110 to compound plates. Plates were incubated stacked for either 23 or 45 minutes at room temperature before fluorescence was read on the Envision (Excitation at 485 nm and Emission at 535 nm; Perkin Elmer) or on the PheraSTAR (Excitation at 485 nm and Emission at 535 nm; BMG Labtech).
Data from USP7 Assays A and B were reported as percent inhibition (inh) compared with control wells based on the following equation: % inh=1−((FLU−AveLow)/(AveHigh−AveLow)) where FLU=measured Fluorescence (See Tables 2 and 3). AveLow=average Fluorescence of no enzyme control (n=16). AveHigh=average Fluorescence of DMSO control (n=16). IC50 values were determined by curve fitting of the standard 4 parameter logistic fitting algorithm included in the Activity Base software package: IDBS XE Designer Model205. Data is fitted using the Levenburg Marquardt algorithm.

USP7, sequence (Q93009 208-1102): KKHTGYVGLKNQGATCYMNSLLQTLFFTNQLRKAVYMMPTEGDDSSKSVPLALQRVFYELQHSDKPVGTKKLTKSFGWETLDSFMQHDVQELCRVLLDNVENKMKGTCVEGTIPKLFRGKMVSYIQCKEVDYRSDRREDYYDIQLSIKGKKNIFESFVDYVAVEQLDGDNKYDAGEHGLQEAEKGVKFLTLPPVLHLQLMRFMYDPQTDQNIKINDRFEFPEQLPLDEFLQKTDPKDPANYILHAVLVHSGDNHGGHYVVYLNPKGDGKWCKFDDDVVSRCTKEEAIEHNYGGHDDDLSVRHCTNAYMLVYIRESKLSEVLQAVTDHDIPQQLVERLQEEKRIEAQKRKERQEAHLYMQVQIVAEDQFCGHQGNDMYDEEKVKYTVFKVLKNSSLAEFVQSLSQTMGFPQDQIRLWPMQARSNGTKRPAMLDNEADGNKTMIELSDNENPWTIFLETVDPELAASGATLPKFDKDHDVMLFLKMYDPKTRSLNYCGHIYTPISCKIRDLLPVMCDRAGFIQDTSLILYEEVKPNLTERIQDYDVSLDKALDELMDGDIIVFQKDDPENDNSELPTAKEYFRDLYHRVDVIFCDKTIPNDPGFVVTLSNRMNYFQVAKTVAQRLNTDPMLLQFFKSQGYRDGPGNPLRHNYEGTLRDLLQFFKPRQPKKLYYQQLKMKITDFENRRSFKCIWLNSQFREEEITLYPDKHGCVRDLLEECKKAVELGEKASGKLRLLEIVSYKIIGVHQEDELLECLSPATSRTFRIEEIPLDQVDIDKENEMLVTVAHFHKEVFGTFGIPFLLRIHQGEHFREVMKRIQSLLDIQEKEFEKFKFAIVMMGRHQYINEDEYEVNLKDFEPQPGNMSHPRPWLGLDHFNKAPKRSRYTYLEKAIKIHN

`O=C(c1ccc(-c2ccc(C(=O)N3CCC(O)(Cn4cnn5cccc5c4=O)CC3)c(Cl)c2)cc1)N1CCCC1` [Compound I-51, 3-((1-(3-chloro-4′-(pyrrolidine-1-carbonyl)-[1,1′-biphenyl]-4-carbonyl)-4-hydroxypiperidin-4-yl)methyl)pyrrolo[2,1-f][1,2,4]triazin-4(3H)-one] had an IC50 of 1 to 10 µM.

`O=C(c1ccc(-c2ccc(C(=O)N3CCC(O)(Cn4cnn5cccc5c4=O)CC3)cc2)cc1)N1CCCCC1` [Compound I-52, 3-((4-hydroxy-1-(4′-(piperidine-1-carbonyl)-[1,1′-biphenyl]-4-carbonyl)piperidin-4-yl)methyl)pyrrolo[2,1-f][1,2,4]triazin-4(3H)-one] showed an IC50 greater than 10 µM.

`CC(C)(C)C(Cc1ccccc1)C(=O)N1CCC(O)(Cn2cnn3cccc3c2=O)CC1` (stereo not shown) [Compound I-53, 3-((1-(2-benzyl-3,3-dimethylbutanoyl)-4-hydroxypiperidin-4-yl)methyl)pyrrolo[2,1-f][1,2,4]triazin-4(3H)-one] showed a half-maximal inhibitory concentration (IC50) of 1 to 10 µM.

On to `N#CC(Cc1ccccc1)C(=O)N1CCC(O)(Cn2cnn3cccc3c2=O)CC1` (stereo not shown) [Compound I-54, 2-benzyl-3-(4-hydroxy-4-((4-oxopyrrolo[2,1-f][1,2,4]triazin-3(4H)-yl)methyl)piperidin-1-yl)-3-oxopropanenitrile], for which the half-maximal inhibitory concentration (IC50) was greater than 10 µM.

The molecule `CC(C)(c1ccccc1)c1ccc(C(=O)N2CCC(O)(Cn3cnn4cccc4c3=O)CC2)cc1` [Compound I-55, 3-((4-hydroxy-1-(4-(2-phenylpropan-2-yl)benzoyl)piperidin-4-yl)methyl)pyrrolo[2,1-f][1,2,4]triazin-4(3H)-one] showed an IC50 of 1 to 10 µM.

On to `C[C@H](CC(=O)N1CCC(O)(Cn2cnn3cccc3c2=O)CC1)c1ccccc1` [Compound I-56, (R)-3-((4-hydroxy-1-(3-phenylbutanoyl)piperidin-4-yl)methyl)pyrrolo[2,1-f][1,2,4]triazin-4(3H)-one], for which the IC50 is less than 0.2 µM.

As for `CC(CC(=O)N1CCC(O)(Cn2cnn3cccc3c2=O)CC1)n1cccc1` (stereo not shown) [Compound I-57, 3-((1-(3-(1H-pyrrol-1-yl)butanoyl)-4-hydroxypiperidin-4-yl)methyl)pyrrolo[2,1-f][1,2,4]triazin-4(3H)-one], the IC50 is less than 0.2 µM.

`O=C(CC1CCc2ccccc2C1)N1CCC(O)(Cn2cnn3cccc3c2=O)CC1` (stereo not shown) [Compound I-58, 3-((4-hydroxy-1-(2-(1,2,3,4-tetrahydronaphthalen-2-yl)acetyl)piperidin-4-yl)methyl)pyrrolo[2,1-f][1,2,4]triazin-4(3H)-one] registered an IC50 greater than 10 µM.

For the molecule `O=C(c1ccc(-c2cscn2)cc1)N1CCC(O)(Cn2cnn3cccc3c2=O)CC1` [Compound I-59, 3-((4-hydroxy-1-(4-(thiazol-4-yl)benzoyl)piperidin-4-yl)methyl)pyrrolo[2,1-f][1,2,4]triazin-4(3H)-one], the IC50 was greater than 10 µM.

`CCC(Cc1ccccc1)C(=O)N1CCC(O)(Cn2cnn3cccc3c2=O)CC1` (stereo not shown) [Compound I-60, 3-((1-(2-benzylbutanoyl)-4-hydroxypiperidin-4-yl)methyl)pyrrolo[2,1-f][1,2,4]triazin-4(3H)-one] displayed an IC50 of 1 to 10 µM.

Consider `O=C(c1ccc(S(=O)(=O)c2ccccc2)cc1)N1CCC(O)(Cn2cnn3cccc3c2=O)CC1` [Compound I-61, 3-((4-hydroxy-1-(4-(phenylsulfonyl)benzoyl)piperidin-4-yl)methyl)pyrrolo[2,1-f][1,2,4]triazin-4(3H)-one], for which the IC50 lay in the range of 1 to 10 µM.

Consider `O=C(c1ccc(Sc2ccccc2)cc1)N1CCC(O)(Cn2cnn3cccc3c2=O)CC1` [Compound I-62, 3-((4-hydroxy-1-(4-(phenylthio)benzoyl)piperidin-4-yl)methyl)pyrrolo[2,1-f][1,2,4]triazin-4(3H)-one], for which the half-inhibitory concentration (IC50) was in the range of 1 to 10 µM.

Molecule `O=C(c1ccc(Cn2cnc3ccccc32)cc1)N1CCC(O)(Cn2cnn3cccc3c2=O)CC1` [Compound I-64, 3-((1-(4-((1H-benzo[d]imidazol-1-yl)methyl)benzoyl)-4-hydroxypiperidin-4-yl)methyl)pyrrolo[2,1-f][1,2,4]triazin-4(3H)-one] came in with an IC50 of 1 to 10 µM.

Molecule `O=C(c1ccc(Cn2cccn2)cc1)N1CCC(O)(Cn2cnn3cccc3c2=O)CC1` [Compound I-65, 3-((1-(4-((1H-pyrazol-1-yl)methyl)benzoyl)-4-hydroxypiperidin-4-yl)methyl)pyrrolo[2,1-f][1,2,4]triazin-4(3H)-one] returned an IC50 of 1 to 10 µM.

The molecule `Cc1nnnn1Cc1ccc(C(=O)N2CCC(O)(Cn3cnn4cccc4c3=O)CC2)cc1` [Compound I-66, 3-((4-hydroxy-1-(4-((5-methyl-1H-tetrazol-1-yl)methyl)benzoyl)piperidin-4-yl)methyl)pyrrolo[2,1-f][1,2,4]triazin-4(3H)-one] gave an IC50 greater than 10 µM.

`Cc1cc(C(F)(F)F)nn1Cc1ccc(C(=O)N2CCC(O)(Cn3cnn4cccc4c3=O)CC2)cc1` [Compound I-67, 3-((4-hydroxy-1-(4-((5-methyl-3-(trifluoromethyl)-1H-pyrazol-1-yl)methyl)benzoyl)piperidin-4-yl)methyl)pyrrolo[2,1-f][1,2,4]triazin-4(3H)-one] returned a concentration for half-maximal inhibition (IC50) of 1 to 10 µM.

The molecule `O=C(c1ccc(Cn2nnc3ccccc32)cc1)N1CCC(O)(Cn2cnn3cccc3c2=O)CC1` [Compound I-68, 3-((1-(4-((1H-benzo[d][1,2,3]triazol-1-yl)methyl)benzoyl)-4-hydroxypiperidin-4-yl)methyl)pyrrolo[2,1-f][1,2,4]triazin-4(3H)-one] showed an IC50 of 1 to 10 µM.

As for `Cc1cc(C)n(Cc2ccc(C(=O)N3CCC(O)(Cn4cnn5cccc5c4=O)CC3)cc2)n1` [Compound I-69, 3-((1-(4-((3,5-dimethyl-1H-pyrazol-1-yl)methyl)benzoyl)-4-hydroxypiperidin-4-yl)methyl)pyrrolo[2,1-f][1,2,4]triazin-4(3H)-one], the IC50 lay within 1 to 10 µM.

Take `O=C(c1ccc(Cc2cccs2)cc1)N1CCC(O)(Cn2cnn3cccc3c2=O)CC1` [Compound I-70, 3-((4-hydroxy-1-(4-(thiophen-2-ylmethyl)benzoyl)piperidin-4-yl)methyl)pyrrolo[2,1-f][1,2,4]triazin-4(3H)-one]: the IC50 lay within 1 to 10 µM.

In turn, `O=C(c1ccccc1)c1ccc(C(=O)N2CCC(O)(Cn3cnn4cccc4c3=O)CC2)cc1` [Compound I-71, 3-((1-(4-benzoylbenzoyl)-4-hydroxypiperidin-4-yl)methyl)pyrrolo[2,1-f][1,2,4]triazin-4(3H)-one] displayed an IC50 of 1 to 10 µM.

`CCN(c1ccccc1)c1ccc(C(=O)N2CCC(O)(Cn3cnn4cccc4c3=O)CC2)cc1` [Compound I-72, 3-((1-(4-(ethyl(phenyl)amino)benzoyl)-4-hydroxypiperidin-4-yl)methyl)pyrrolo[2,1-f][1,2,4]triazin-4(3H)-one]: the IC50 is 1 to 10 µM.

With `N#Cc1ccc(N2CCN(C(=O)N3CCC(O)(Cn4cnn5cccc5c4=O)CC3)CC2)cc1` [Compound I-73, 4-(4-(4-hydroxy-4-((4-oxopyrrolo[2,1-f][1,2,4]triazin-3(4H)-yl)methyl)piperidine-1-carbonyl)piperazin-1-yl)benzonitrile], the IC50 is greater than 10 µM.

`CS(=O)(=O)c1ccc(N2CCN(C(=O)N3CCC(O)(Cn4cnn5cccc5c4=O)CC3)CC2)cc1` [Compound I-74, 3-((4-hydroxy-1-(4-(4-(methylsulfonyl)phenyl)piperazine-1-carbonyl)piperidin-4-yl)methyl)pyrrolo[2,1-f][1,2,4]triazin-4(3H)-one] yielded an IC50 greater than 10 µM.

For `O=C(c1ccc(CN2CCCCC2)cc1Cl)N1CCC(O)(Cn2cnn3cccc3c2=O)CC1` [Compound I-75, 3-((1-(2-chloro-4-(piperidin-1-ylmethyl)benzoyl)-4-hydroxypiperidin-4-yl)methyl)pyrrolo[2,1-f][1,2,4]triazin-4(3H)-one], the IC50 was greater than 10 µM.

In turn, `Cc1ccc2c(=O)n(CC3(O)CCN(C(=O)CC(C)c4ccccc4)CC3)cnn12` (stereo not shown) [Compound I-76, 3-((4-hydroxy-1-(3-phenylbutanoyl)piperidin-4-yl)methyl)-7-methylpyrrolo[2,1-f][1,2,4]triazin-4(3H)-one] registered an IC50 of 0.2 to 1 µM.

Regarding `Cc1ccc2c(=O)n(CC3(O)CCN(C(=O)C(C)Cc4ccccc4)CC3)cnn12` (stereo not shown) [Compound I-77, 3-((4-hydroxy-1-(2-methyl-3-phenylpropanoyl)piperidin-4-yl)methyl)-7-methylpyrrolo[2,1-f][1,2,4]triazin-4(3H)-one], the IC50 was 1 to 10 µM.

The molecule `CN(C)C(=O)c1ccc(-c2ccc(C(=O)N3CCC(O)(Cn4cnn5cccc5c4=O)CC3)c(Cl)c2)cc1` [Compound I-78, 3′-chloro-4′-(4-hydroxy-4-((4-oxopyrrolo[2,1-f][1,2,4]triazin-3(4H)-yl)methyl)piperidine-1-carbonyl)-N,N-dimethyl-[1,1′-biphenyl]-4-carboxamide] showed an IC50 greater than 10 µM.

Molecule `O=C(c1ccc(-c2ccc(C(=O)N3CCC(O)(Cn4cnn5cccc5c4=O)CC3)c(Cl)c2)cc1)N1CCCCC1` [Compound I-79, 3-((1-(3-chloro-4′-(piperidine-1-carbonyl)-[1,1′-biphenyl]-4-carbonyl)-4-hydroxypiperidin-4-yl)methyl)pyrrolo[2,1-f][1,2,4]triazin-4(3H)-one] came in with an IC50 of 1 to 10 µM.
